Reference: ChEMBL document CHEMBL1201862, “PubChem BioAssay data set” (2004)
Active and inactive are the calls of the source.

How the values were obtained:
Leucine aminopeptidase = biological target: T1, Leucine aminopeptidase (Plasmodium falciparum 3D7, UniProt Q8IL11); experiment: P. falciparum M17LAP inhibitors, primary screen, biochemical, fluorogenic H-Leu-NHMec substrate, 1536-well (AID 1619); format: functional
T1 sequence (Q8IL11 whole entry): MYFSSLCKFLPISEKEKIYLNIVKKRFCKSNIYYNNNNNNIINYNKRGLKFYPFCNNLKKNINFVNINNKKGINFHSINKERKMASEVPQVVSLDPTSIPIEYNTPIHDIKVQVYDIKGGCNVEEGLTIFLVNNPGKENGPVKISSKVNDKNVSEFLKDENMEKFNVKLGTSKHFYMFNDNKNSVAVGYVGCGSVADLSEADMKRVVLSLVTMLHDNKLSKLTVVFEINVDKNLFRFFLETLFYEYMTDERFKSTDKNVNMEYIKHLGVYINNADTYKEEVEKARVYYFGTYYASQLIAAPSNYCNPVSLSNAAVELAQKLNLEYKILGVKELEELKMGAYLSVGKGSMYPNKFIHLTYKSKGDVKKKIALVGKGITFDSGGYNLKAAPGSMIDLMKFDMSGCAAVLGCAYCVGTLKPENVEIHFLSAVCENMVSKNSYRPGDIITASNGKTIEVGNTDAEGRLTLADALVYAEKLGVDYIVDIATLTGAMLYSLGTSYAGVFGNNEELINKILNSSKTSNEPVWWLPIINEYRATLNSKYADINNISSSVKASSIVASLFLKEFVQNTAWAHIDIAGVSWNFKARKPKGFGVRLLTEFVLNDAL

HEK293 = experiment: cells; format: functional, cell-based; conditions: Homo sapiens
[1] = biological target: T2, Nuclear receptor subfamily 0 group B member 1 (Homo sapiens, UniProt P51843); experiment: Luminescence-based cell-based high throughput dose response assay for inhibitors of the orphan nuclear receptor subfamily 0, group B, member 1 (DAX1; NR0B1). [Related pubchem assays (depositor defined):AID504766, AID504790]; format: functional
T2 sequence (P51843 whole entry): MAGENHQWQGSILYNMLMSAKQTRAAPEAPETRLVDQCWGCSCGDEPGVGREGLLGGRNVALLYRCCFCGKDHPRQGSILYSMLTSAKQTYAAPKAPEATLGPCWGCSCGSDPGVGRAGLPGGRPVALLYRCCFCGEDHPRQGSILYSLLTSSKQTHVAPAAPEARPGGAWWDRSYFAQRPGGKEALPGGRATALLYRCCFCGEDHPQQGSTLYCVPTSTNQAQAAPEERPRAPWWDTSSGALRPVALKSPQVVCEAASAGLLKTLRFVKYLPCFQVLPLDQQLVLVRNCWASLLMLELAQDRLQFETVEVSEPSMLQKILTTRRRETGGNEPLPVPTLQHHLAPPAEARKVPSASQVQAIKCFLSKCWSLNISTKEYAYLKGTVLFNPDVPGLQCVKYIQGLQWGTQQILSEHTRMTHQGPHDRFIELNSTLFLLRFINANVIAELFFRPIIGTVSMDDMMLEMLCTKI

[2] = biological target: T3, Sentrin-specific protease 8 (Homo sapiens, UniProt Q96LD8); experiment: SENP8 protease inhibitors, SAR follow-up, biochemical, luminescence (AID 504501); format: functional
T3 sequence (Q96LD8 whole entry): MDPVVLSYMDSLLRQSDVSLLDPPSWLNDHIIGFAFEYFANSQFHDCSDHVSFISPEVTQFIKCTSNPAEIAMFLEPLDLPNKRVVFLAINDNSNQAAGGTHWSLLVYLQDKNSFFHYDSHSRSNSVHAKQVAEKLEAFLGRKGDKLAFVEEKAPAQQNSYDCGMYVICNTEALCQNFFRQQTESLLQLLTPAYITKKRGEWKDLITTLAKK

Caspase-3 = biological target: T4, Caspase-3 (Homo sapiens, UniProt P42574); experiment: SAR Analysis of small molecule inhibitors of Sentrin-specific proteases (SENPs) using a Caspase-3 Selectivity assay. [Related pubchem assays (depositor defined):AID2540, AID2599, AID434973, AID489001]; format: functional
T4 sequence (P42574 whole entry): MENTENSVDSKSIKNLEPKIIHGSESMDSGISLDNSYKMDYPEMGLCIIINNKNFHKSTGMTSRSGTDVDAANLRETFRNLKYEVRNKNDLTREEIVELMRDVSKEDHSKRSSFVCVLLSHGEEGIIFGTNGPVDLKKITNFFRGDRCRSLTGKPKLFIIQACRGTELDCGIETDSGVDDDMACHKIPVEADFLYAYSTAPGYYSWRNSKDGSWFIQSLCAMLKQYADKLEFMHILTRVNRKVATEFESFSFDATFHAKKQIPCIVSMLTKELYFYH

[3] = biological target: T5, Sentrin-specific protease 6 (Homo sapiens, UniProt Q9GZR1); experiment: SAR Analysis of small molecule inhibitors of Sentrin-specific protease 6 (SENP6) using a Luminescent assay. [Related pubchem assays (depositor defined):AID2582, AID2599]; format: functional
T5 sequence (Q9GZR1 whole entry): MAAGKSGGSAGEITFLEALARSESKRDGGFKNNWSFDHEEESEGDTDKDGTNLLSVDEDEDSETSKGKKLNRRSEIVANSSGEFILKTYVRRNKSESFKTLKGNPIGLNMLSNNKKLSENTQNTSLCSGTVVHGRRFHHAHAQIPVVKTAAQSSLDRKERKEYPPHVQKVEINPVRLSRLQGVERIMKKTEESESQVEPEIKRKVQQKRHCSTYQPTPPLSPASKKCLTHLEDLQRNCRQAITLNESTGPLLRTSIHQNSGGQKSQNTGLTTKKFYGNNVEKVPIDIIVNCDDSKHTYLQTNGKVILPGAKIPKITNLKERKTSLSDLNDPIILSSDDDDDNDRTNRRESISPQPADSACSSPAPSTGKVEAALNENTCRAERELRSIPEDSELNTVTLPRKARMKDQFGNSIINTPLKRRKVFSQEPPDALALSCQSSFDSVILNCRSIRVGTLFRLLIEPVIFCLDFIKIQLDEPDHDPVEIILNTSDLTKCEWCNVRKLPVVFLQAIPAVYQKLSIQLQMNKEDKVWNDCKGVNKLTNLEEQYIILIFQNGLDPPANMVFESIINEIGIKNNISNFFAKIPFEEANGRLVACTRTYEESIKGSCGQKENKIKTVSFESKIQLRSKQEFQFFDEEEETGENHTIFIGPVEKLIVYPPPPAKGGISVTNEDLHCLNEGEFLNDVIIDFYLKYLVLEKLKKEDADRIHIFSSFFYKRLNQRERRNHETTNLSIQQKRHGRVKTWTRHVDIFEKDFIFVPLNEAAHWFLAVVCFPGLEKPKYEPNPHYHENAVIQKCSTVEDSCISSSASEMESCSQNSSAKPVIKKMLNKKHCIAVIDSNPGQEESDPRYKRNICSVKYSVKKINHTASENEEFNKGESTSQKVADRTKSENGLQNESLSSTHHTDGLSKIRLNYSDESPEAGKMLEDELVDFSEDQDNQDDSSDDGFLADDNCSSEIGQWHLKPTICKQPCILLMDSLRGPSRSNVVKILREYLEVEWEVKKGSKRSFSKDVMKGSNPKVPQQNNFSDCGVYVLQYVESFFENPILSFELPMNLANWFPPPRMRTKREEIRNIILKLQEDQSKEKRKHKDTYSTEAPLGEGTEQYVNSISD

[4] = biological target: T6, Sentrin-specific protease 7 (Homo sapiens, UniProt Q9BQF6); experiment: SENP7 protease inhibitors, SAR follow-up, biochemical, luminescence (AID 504497); format: functional
T6 sequence (Q9BQF6 whole entry): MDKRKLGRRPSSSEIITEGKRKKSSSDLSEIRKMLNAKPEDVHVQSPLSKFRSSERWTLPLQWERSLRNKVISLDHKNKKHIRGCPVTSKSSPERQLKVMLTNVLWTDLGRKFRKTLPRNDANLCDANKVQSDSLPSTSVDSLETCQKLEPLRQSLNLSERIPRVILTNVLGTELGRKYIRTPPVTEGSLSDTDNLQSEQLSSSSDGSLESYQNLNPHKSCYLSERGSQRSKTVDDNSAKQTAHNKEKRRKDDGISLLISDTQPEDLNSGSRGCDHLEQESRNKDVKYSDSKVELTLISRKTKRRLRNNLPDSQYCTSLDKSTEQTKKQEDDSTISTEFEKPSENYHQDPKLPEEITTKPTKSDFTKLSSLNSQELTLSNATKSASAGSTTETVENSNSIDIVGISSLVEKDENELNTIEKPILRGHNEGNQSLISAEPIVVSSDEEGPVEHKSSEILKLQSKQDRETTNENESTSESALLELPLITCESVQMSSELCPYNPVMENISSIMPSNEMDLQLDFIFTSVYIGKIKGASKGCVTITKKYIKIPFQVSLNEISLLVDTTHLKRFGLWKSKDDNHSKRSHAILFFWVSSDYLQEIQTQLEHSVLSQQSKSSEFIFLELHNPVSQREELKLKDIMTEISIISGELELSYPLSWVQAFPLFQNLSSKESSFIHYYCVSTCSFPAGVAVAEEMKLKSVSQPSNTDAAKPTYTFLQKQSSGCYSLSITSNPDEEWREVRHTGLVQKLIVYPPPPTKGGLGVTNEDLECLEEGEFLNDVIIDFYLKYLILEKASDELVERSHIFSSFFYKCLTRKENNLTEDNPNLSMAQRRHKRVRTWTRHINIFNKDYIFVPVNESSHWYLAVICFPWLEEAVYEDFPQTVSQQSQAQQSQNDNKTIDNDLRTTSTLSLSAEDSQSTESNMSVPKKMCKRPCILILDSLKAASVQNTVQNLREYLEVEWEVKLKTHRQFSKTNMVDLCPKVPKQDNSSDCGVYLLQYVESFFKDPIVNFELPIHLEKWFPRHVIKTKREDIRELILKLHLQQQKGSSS

[5] = biological target: Beta-2 adrenergic receptor (Homo sapiens, UniProt P07550); experiment: beta2AR agonists driving receptor internalization, dose response, cell-based, FAP fluorogen, flow cytometry, cherry pick 1 (AID 588763); format: functional
Cytochrome P450 1A2 = biological target: T7, Cytochrome P450 1A2 (Homo sapiens, UniProt P05177);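 further: PubChem cytochrome P450 panel assay, CYP1A2 panel member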
T7 sequence (P05177 whole entry): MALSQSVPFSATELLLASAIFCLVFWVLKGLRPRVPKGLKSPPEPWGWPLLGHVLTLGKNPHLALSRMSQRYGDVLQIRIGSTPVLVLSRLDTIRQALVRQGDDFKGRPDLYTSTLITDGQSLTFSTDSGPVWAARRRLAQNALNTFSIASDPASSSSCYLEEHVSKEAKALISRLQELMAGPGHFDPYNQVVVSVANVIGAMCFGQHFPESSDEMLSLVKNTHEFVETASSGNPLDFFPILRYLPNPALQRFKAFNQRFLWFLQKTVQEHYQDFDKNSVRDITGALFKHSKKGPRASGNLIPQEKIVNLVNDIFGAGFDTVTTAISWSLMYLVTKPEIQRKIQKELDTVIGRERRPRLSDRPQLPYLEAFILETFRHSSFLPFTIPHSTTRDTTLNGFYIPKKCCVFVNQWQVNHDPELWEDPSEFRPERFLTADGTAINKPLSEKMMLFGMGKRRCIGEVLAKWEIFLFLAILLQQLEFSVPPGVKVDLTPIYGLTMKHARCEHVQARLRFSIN

Cytochrome P450 2C9 = Cytochrome P450 2C9 (Homo sapiens, UniProt P11712)
Chain of Cytochrome P450 2C9 (P11712 whole entry): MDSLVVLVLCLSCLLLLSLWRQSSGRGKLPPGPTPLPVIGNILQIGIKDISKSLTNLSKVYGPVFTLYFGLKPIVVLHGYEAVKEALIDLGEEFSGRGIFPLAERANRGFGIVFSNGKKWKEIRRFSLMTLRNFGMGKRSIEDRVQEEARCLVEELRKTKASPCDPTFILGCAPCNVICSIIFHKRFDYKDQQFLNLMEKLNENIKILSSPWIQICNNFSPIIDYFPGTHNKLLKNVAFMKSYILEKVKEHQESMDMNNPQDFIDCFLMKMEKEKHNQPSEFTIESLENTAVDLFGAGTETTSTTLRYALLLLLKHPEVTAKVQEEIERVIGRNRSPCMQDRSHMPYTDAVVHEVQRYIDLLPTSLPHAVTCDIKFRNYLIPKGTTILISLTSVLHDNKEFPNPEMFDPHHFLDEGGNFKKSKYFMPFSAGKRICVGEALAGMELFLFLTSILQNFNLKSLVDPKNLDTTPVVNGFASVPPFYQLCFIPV

Chain of Beta-2 adrenergic receptor (P07550 whole entry): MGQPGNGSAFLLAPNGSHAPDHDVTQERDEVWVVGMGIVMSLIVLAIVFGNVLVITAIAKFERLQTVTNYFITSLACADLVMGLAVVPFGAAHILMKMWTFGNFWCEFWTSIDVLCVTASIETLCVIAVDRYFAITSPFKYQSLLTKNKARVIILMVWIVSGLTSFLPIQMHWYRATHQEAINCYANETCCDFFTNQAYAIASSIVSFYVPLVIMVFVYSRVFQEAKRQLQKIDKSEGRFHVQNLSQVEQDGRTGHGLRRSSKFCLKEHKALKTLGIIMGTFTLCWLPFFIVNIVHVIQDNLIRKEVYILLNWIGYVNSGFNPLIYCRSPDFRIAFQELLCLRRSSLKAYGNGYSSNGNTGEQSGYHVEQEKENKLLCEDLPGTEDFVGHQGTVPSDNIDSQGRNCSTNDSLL

SMILES	IC50 (HEK293)	IC50 [1]	IC50 [2]	IC50 (Caspase-3)	IC50 [3]	IC50 [4]	EC50 [5]	further results
Cc1ccc(S(=O)(=O)Oc2cccc(N3C(=O)C4CC=CCC4C3=O)c2)cc1 (configuration not stated)	> 67.5 µM (inactive)	> 67.5 µM (inactive)						IC50 (Leucine aminopeptidase): 49.6 µM (active)
N#Cc1c(NC(=O)c2ccc(Cn3cc(Br)cn3)o2)sc2c1CCCCCC2			> 99 µM (inactive)	> 99 µM (inactive)	> 99 µM (inactive)	> 99 µM (inactive)		
CCCCc1ccc2nc(NC(=O)c3csc4ccccc34)sc2c1			> 99 µM (inactive)	> 99 µM (inactive)	> 99 µM (inactive)	> 99 µM (inactive)		
CSCC[C@H](NC(=O)OC(C)(C)C)C(=O)N1CCC(C(=O)N[C@@H](C)C(=O)NC(C)c2ccccc2)CC1 (some centres not stated)	> 67.5 µM (inactive)	> 67.5 µM (inactive)						
O=C(C[n+]1cccc(NC(=O)c2ccccc2)c1)c1ccc(NC(=O)c2ccccc2)cc1							2.76 µM (active)	AC50 (Cytochrome P450 1A2): 17.8 µM (inconclusive); AC50 (Cytochrome P450 2C9): 5.62 µM (inconclusive)
CCN(Cc1ccccc1)S(=O)(=O)c1cc(C(=O)NC(C)C2CC3CCC2C3)ccc1OC (configuration not stated)							8.76 µM (active)	
